In paper PMC2941209 (Synapse (New York, N.Y.), 2010):
Several values for one entry are separate records, joined by “and”; a condition that tells them apart may be missing. Equal values may be shown once. Where a name gives a salt, the structure may show the parent alone.

Legend:
[1] = biological target: T1, SERT (Rattus norvegicus, UniProt P31652); assay: [3H]5-HT release assay; conditions: for EMAX substrate-induced [3H]5-HT release, CONTROL: substrate alone (control), 100% = release by 100 μM tyramine, ±SD; for Emax [3H]5-HT release, 15 μM EG-1-149 / Emax [3H]5-HT release, NO EG-1-149: ±SD (n=6)
T1 sequence (P31652 whole entry): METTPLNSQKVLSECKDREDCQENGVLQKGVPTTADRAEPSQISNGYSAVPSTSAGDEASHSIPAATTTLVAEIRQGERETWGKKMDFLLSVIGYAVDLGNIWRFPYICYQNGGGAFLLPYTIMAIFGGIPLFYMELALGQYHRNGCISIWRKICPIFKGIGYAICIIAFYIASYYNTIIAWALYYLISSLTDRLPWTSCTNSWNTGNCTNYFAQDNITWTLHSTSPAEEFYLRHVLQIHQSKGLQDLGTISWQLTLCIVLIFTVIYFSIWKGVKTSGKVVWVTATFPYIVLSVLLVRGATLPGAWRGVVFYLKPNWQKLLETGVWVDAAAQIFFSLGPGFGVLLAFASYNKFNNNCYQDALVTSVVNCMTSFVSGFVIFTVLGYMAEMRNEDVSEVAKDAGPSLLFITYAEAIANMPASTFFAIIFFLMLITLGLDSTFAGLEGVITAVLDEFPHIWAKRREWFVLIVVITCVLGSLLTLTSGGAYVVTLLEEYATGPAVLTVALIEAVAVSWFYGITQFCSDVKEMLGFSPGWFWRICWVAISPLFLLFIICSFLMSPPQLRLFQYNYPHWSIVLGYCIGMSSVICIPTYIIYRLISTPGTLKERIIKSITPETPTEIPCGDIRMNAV

[2] = biological target: T1, SERT; assay: [3H]5-HT uptake inhibition assay; format: biochemical
[3] = test system: DAT; conditions: read-out: IC50 reuptake inhibition, DAT; ref Greiner et al., 2003; cited from earlier work
[4] = biological target: T1, SERT; assay: biochemical
[5] = 1 μM test compound, substrate MDMA

Q: With NCCc1c[nH]c2ccc(O)cc12 [5-HT] as the compound, how does the “EMAX substrate-induced [3H]5-HT release, CONTROL” value [1] read?
A: Its value is 85±1%.

Q: Which “EMAX substrate-induced [3H]5-HT release, CONTROL” value [1] does the source give for Clc1cccc(N2CCNCC2)c1 [mCPP, meta-chlorophenylpiperazine] here?
A: Its value is 94±3% and 91±1%.

Q: Which results are given for Cc1cc(NC(=O)Nc2ccc3c(ccn3C)c2)sn1 [SB204741, N-(1-Methyl-1H-indol-5-yl)-N′-(3-methylisothiazol-5-yl)urea]?
A: IC50 [2]: 38000 nM; effect on EMAX of MDMA-induced [3H]5-HT release [1, 5]: without altering the EMAX values; rightward shift of the MDMA dose-response curve ([3H]5-HT release) [1, 5]: 3–4 fold

Q: What does the source list for CC(N)Cc1cccc(C(F)(F)F)c1 (single isomer, unassigned; (+)) [(+)-Norfenfluramine]?
A: Emax [3H]5-HT release, 15 μM EG-1-149 ([1]; release time 5 min): 81 ± 3 %I; Emax [3H]5-HT release, 15 μM EG-1-149 ([1]; release time 5 min, listed as (+)-norfenfluramine): 81±3 %I; Emax [3H]5-HT release, NO EG-1-149 ([1]; release time 5 min): 114 ± 8 %I; Emax [3H]5-HT release, 15 μM EG-1-149 ([1]; release time 15 min): 97 ± 4 %I; Emax [3H]5-HT release, 15 μM EG-1-149 ([1]; release time 15 min, listed as (+)-norfenfluramine): 97±4 %I; Emax [3H]5-HT release, NO EG-1-149 ([1]; release time 15 min): 111 ± 5 %I; EMAX substrate-induced [3H]5-HT release, CONTROL [1]: 113±6%

Q: For Brc1ccc(CN2CCC(CCOC(c3ccccc3)c3ccccc3)CC2)cc1 [EG-1-149, 4-(2-(Benzhydryloxy)ethyl)-1-(4-bromobenzyl)piperidine oxalate], which IC50 [2] is on record?
A: The IC50 was 1760 nM.

Q: What about the IC50 [3] of the same compound?
A: The IC50 was 5.1 ± 0.4 nM.

Q: What about the Ki [4] of the same compound?
A: The Ki was 713 nM and 1180 nM and 4820 nM and 2900 nM and 1770 nM.

Q: Which EC50 [1] does the source give for CNC(C)Cc1ccc2c(c1)OCO2 (racemic) [(±)-MDMA] here?
A: Its EC50 is 88 ± 10 nM.

Q: What about the Emax ([1]; read-out: EMAX substrate-induced [3H]5-HT release, CONTROL) of the same compound?
A: Its Emax is 105%.
